This note sets out measurements from US12404289B2 (Gilead Sciences, Inc., priority 2020, dated 2025).

By EC50 is commonly meant the concentration at which the effect is half-maximal.

Like-named read-outs stand apart in the source and are kept apart here.

Test [1] concerns Respiratory syncytial virus (RSV) strain A2. Kind of test: Hep-2 RSV2 384-well assay (EC50-HEP2-384). In kind it is cell-based. The following applies: human respiratory syncytial virus, HEp-2, 96 h, HEp-2 cells, RSV A2, MOI=4, 4 days, Table 3.
For the next test, the system named is SARS-CoV-2. Kind of test: SARS-CoV-2 antiviral assay (A549-hACE2, Nano luciferase). Type of test: cell-based. The following applies: A549-hACE2 cells, SARS-CoV2-Nano, MOI 0.025, 48 h, Table 4, read-out: EC50 SARS CoV2.
Setting [2] is: Severe acute respiratory syndrome coronavirus 2, 48 h.

`CC(=O)O[C@H]1[C@@H](OC(C)=O)[C@](C#N)(c2ccc3c(N)ncnn23)O[C@@H]1CO[P@@](=O)(N[C@@H](C)C(=O)O[C@H]1CCOC1)Oc1ccc(C(C)(C)C)cc1` [Example 37, (2R,3R,4R,5R)-2-(4-aminopyrrolo[2,1-f][1,2,4]triazin-7-yl)-5-((((4-(tert-butyl)phenoxy)(((S)-1-oxo-1-(((S)-tetrahydrofuran-3-yl)oxy)propan-2-yl)amino)phosphoryl)oxy)methyl)-2-cyanotetrahydrofuran-3,4-diyl Diacetate]: the half-maximal effective concentration (EC50) was 187 nM in test [1] and 282 nM in the test on SARS-CoV-2 (setting [2]).
In the case of `CCC(C)(C)CCOC(=O)[C@H](C)NP(=O)(OC[C@H]1O[C@@](C#N)(c2ccc3c(N)ncnn23)[C@H](O)[C@@H]1O)Oc1ccc(C(C)(C)C)cc1` (stereo partly drawn) [Example 154, 3,3-dimethylpentyl ((((2R,3S,4R,5R)-5-(4-aminopyrrolo[2,1-f][1,2,4]triazin-7-yl)-5-cyano-3,4-dihydroxytetrahydrofuran-2-yl)methoxy)(4-(tert-butyl)phenoxy)phosphoryl)-L-alaninate], the EC50 in test [1] came to 105 nM; with SARS-CoV-2 (setting [2]), 330 nM.
Consider `CCC(=O)O[C@H]1[C@@H](OC(=O)CC)[C@](C#N)(c2ccc3c(N)ncnn23)O[C@@H]1COP(=O)(N[C@@H](C)C(=O)OCC(C)C)Oc1ccc(C(C)(C)C)cc1` (stereo partly drawn) [Example 138, (2R,3R,4R,5R)-2-(4-aminopyrrolo[2,1-f][1,2,4]triazin-7-yl)-5-((((4-(tert-butyl)phenoxy)(((S)-1-isobutoxy-1-oxopropan-2-yl)amino)phosphoryl)oxy)methyl)-2-cyanotetrahydrofuran-3,4-diyl Dipropionate], for which the EC50 in test [1] amounted to 36.6 nM; in the test on SARS-CoV-2 (setting [2]), 342 nM.
Regarding `CCOC(=O)[C@H](C)NP(=O)(OC[C@H]1O[C@@](C#N)(c2ccc3c(N)ncnn23)[C@H](OC(=O)C(C)C)[C@@H]1OC(=O)C(C)C)Oc1ccc(C23CC(C2)C3)cc1` (stereo partly drawn) [Example 43, (2R,3R,4R,5R)-2-(4-aminopyrrolo[2,1-f][1,2,4]triazin-7-yl)-5-((((4-(bicyclo[1.1.1]pentan-1-yl)phenoxy)(((S)-1-ethoxy-1-oxopropan-2-yl)amino)phosphoryl)oxy)methyl)-2-cyanotetrahydrofuran-3,4-diyl bis(2-methylpropanoate)], the 50% effective concentration (EC50) in test [1] is 62.8 nM; in the test on SARS-CoV-2 (setting [2]), 168 nM.
Regarding `C[C@H](NP(=O)(OC[C@H]1O[C@@](C#N)(c2ccc3c(N)ncnn23)[C@H](O)[C@@H]1O)Oc1ccc(C(C)(C)C)cc1)C(=O)OCC1CC1` (stereo partly drawn) [Example 101a, Cyclopropyl methyl ((((2R,3S,4R,5R)-5-(4-aminopyrrolo[2,1-f][1,2,4]triazin-7-yl)-5-cyano-3,4-dihydroxytetrahydrofuran-2-yl)methoxy)(4-(tert-butyl)phenoxy)phosphoryl)-L-alaninate], the values for the EC50 (in test [1]; in the test on SARS-CoV-2 (setting [2])) were 41.1 nM and 148 nM, respectively.
Regarding `CCC(=O)O[C@H]1[C@@H](OC(=O)CC)[C@](C#N)(c2ccc3c(N)ncnn23)O[C@@H]1COP(=O)(N[C@@H](C)C(=O)OCCC(C)(C)CC)Oc1ccccc1` (stereo partly drawn) [Example 105a, (2R,3R,4R,5R)-2-(4-aminopyrrolo[2,1-f][1,2,4]triazin-7-yl)-2-cyano-5-((((((S)-1-((3,3-dimethylpentyl)oxy)-1-oxopropan-2-yl)amino)(phenoxy)phosphoryl)oxy)methyl)tetrahydrofuran-3,4-diyl Dipropionate], the EC50 in test [1] came out at 54.6 nM; in the test with SARS-CoV-2 (setting [2]) it was 133 nM.
`CCC(=O)O[C@H]1[C@@H](OC(=O)CC)[C@](C#N)(c2ccc3c(N)ncnn23)O[C@@H]1COP(=O)(N[C@@H](C)C(=O)OCC1CC1)Oc1ccc(C(C)(C)C)cc1` (stereo partly drawn) [Example 103b, (2R,3R,4R,5R)-2-(4-aminopyrrolo[2,1-f][1,2,4]triazin-7-yl)-5-((((4-(tert-butyl)phenoxy)(((S)-1-(cyclopropylmethoxy)-1-oxopropan-2-yl)amino)phosphoryl)oxy)methyl)-2-cyanotetrahydrofuran-3,4-diyl Dipropionate]: the EC50 came to 42 nM in test [1] and 363 nM in the test with SARS-CoV-2 (setting [2]).
On to `C[C@H](NP(=O)(OC[C@H]1O[C@@](C#N)(c2ccc3c(N)ncnn23)[C@H](O)[C@@H]1O)Oc1ccc(C(C)(C)C)cc1)C(=O)OCC1CCCCC1` (stereo partly drawn) [Example 156, Cyclohexylmethyl ((((2R,3S,4R,5R)-5-(4-aminopyrrolo[2,1-f][1,2,4]triazin-7-yl)-5-cyano-3,4-dihydroxytetrahydrofuran-2-yl)methoxy)(4-(tert-butyl)phenoxy)phosphoryl)-L-alaninate], for which the figures for the 50% effective concentration (EC50) (in test [1]; in the test with SARS-CoV-2 (setting [2])) were 195 nM and 363 nM, respectively.
For `CCC(=O)O[C@H]1[C@@H](OC(=O)CC)[C@](C#N)(c2ccc3c(N)ncnn23)O[C@@H]1COP(=O)(N[C@@H](C)C(=O)OC1CC(C)(C)C1)Oc1ccc(C(C)(C)C)cc1` (stereo partly drawn) [Example 95, (2R,3R,4R,5R)-2-(4-aminopyrrolo[2,1-f][1,2,4]triazin-7-yl)-5-((((4-(tert-butyl)phenoxy)(((S)-1-(3,3-dimethylcyclobutoxy)-1-oxopropan-2-yl)amino)phosphoryl)oxy)methyl)-2-cyanotetrahydrofuran-3,4-diyl Dipropionate] the same measures were 61.8 nM and 264 nM.
Regarding `CC(=O)O[C@H]1[C@@H](OC(C)=O)[C@](C#N)(c2ccc3c(N)ncnn23)O[C@@H]1COP(=O)(N[C@@H](C)C(=O)OCC1CCCCC1)Oc1ccc(C(C)(C)C)cc1` (stereo partly drawn) [Example 163, (2R,3R,4R,5R)-2-(4-aminopyrrolo[2,1-f][1,2,4]triazin-7-yl)-5-((((4-(tert-butyl)phenoxy)(((S)-1-(cyclohexylmethoxy)-1-oxopropan-2-yl)amino)phosphoryl)oxy)methyl)-2-cyanotetrahydrofuran-3,4-diyl Diacetate], the concentration for a half-maximal effect (EC50) in test [1] came out at 68 nM; in the test on SARS-CoV-2 (setting [2]), 378 nM.
The like results for `CCC(C)(C)CCOC(=O)[C@H](C)NP(=O)(OC[C@H]1O[C@@](C#N)(c2ccc3c(N)ncnn23)[C@H](OC(C)=O)[C@@H]1OC(C)=O)Oc1ccccc1` (stereo partly drawn) [Example 106a, (2R,3R,4R,5R)-2-(4-aminopyrrolo[2,1-f][1,2,4]triazin-7-yl)-2-cyano-5-((((((S)-1-((3,3-dimethylpentyl)oxy)-1-oxopropan-2-yl)amino)(phenoxy)phosphoryl)oxy)methyl)tetrahydrofuran-3,4-diyl Diacetate] were, in that order, 46.8 nM and 83.1 nM.
As to `CC(=O)O[C@H]1[C@@H](OC(C)=O)[C@](C#N)(c2ccc3c(N)ncnn23)O[C@@H]1COP(=O)(N[C@@H](C)C(=O)OC1CC2(CCCC2)C1)Oc1ccc(C(C)(C)C)cc1` (stereo partly drawn) [Example 98a, (2R,3R,4R,5R)-2-(4-aminopyrrolo[2,1-f][1,2,4]triazin-7-yl)-5-((((4-(tert-butyl)phenoxy)(((S)-1-oxo-1-(spiro[3.4]octan-2-yloxy)propan-2-yl)amino)phosphoryl)oxy)methyl)-2-cyanotetrahydrofuran-3,4-diyl Diacetate], the EC50 worked out at 62.1 nM in test [1] and 176 nM in the test with SARS-CoV-2 (setting [2]).
Turning to `CC(=O)O[C@H]1[C@@H](OC(C)=O)[C@](C#N)(c2ccc3c(N)ncnn23)O[C@@H]1COP(=O)(N[C@@H](C)C(=O)OCC1CCC1)Oc1ccccc1` (stereo partly drawn) [Example 145, (2R,3R,4R,5R)-2-(4-aminopyrrolo[2,1-f][1,2,4]triazin-7-yl)-2-cyano-5-((((((S)-1-(cyclobutylmethoxy)-1-oxopropan-2-yl)amino)(phenoxy)phosphoryl)oxy)methyl)tetrahydrofuran-3,4-diyl Diacetate], the EC50 in test [1] was determined as 35 nM; in the test with SARS-CoV-2 (setting [2]), 101 nM.
With `CCC(C)(C)CCOC(=O)[C@H](C)NP(=O)(OC[C@H]1O[C@@](C#N)(c2ccc3c(N)ncnn23)[C@H](OC(C)=O)[C@@H]1OC(C)=O)Oc1ccc(C(C)(C)C)cc1` (stereo partly drawn) [Example 159, (2R,3R,4R,5R)-2-(4-aminopyrrolo[2,1-f][1,2,4]triazin-7-yl)-5-((((4-(tert-butyl)phenoxy)(((S)-1-((3,3-dimethylpentyl)oxy)-1-oxopropan-2-yl)amino)phosphoryl)oxy)methyl)-2-cyanotetrahydrofuran-3,4-diyl Diacetate], the EC50 in test [1] came out at 79.3 nM; with SARS-CoV-2 (setting [2]), 369 nM.
On to `C[C@@H](CC(=O)OC1CCC1)NP(=O)(OC[C@H]1O[C@@](C#N)(c2ccc3c(N)ncnn23)[C@H](O)[C@@H]1O)Oc1ccc(C(C)(C)C)cc1` (stereo partly drawn) [Example 165, cyclobutyl (3S)-3-(((((2R,3S,4R,5R)-5-(4-aminopyrrolo[2,1-f][1,2,4]triazin-7-yl)-5-cyano-3,4-dihydroxytetrahydrofuran-2-yl)methoxy)(4-(tert-butyl)phenoxy)phosphoryl)amino)butanoate], for which the figures for the EC50 (in test [1]; with SARS-CoV-2 (setting [2])) were 5000 nM and 10000 nM, respectively.
Consider `CCC(CC)COC(=O)[C@H](C)NP(=O)(OC[C@H]1O[C@@](C#N)(c2ccc3c(N)ncnn23)[C@H](O)[C@@H]1O)Oc1ccccn1` (single isomer, unassigned) [Example 175a], for which the concentration for a half-maximal effect (EC50) in test [1] stood at 5000 nM; in the test on SARS-CoV-2, 3360 nM.
Take `CC(C)C(=O)O[C@H]1[C@@H](OC(=O)C(C)C)[C@](C#N)(c2ccc3c(N)ncnn23)O[C@@H]1COP(=O)(N[C@@H](C)C(=O)OC1CC(C)(C)C1)Oc1ccc(C(C)(C)C)cc1` (stereo partly drawn) [Example 94, (2R,3R,4R,5R)-2-(4-aminopyrrolo[2,1-f][1,2,4]triazin-7-yl)-5-((((4-(tert-butyl)phenoxy)(((S)-1-(3,3-dimethylcyclobutoxy)-1-oxopropan-2-yl)amino)phosphoryl)oxy)methyl)-2-cyanotetrahydrofuran-3,4-diyl bis(2-methylpropanoate)]: the EC50 in test [1] was 84.5 nM; in the test on SARS-CoV-2 (setting [2]) it was 370 nM.
